tested on: SFV-Rluc; details: not given

| Compound | SFV replication % left (surviving fraction, remaining percentage of SFV replication) [%] |
| --- | --- |
| CCN(CC)CCOC(=O)c1ccc(N)cc1.Cl [PC-167] | 105.4 |
| N=C(N)NS(=O)(=O)c1ccc(N)cc1 [PC-196] | 63.5 |
| CCC1(c2ccccc2)C(=O)N=C([O-])NC1=O.[Na+] (stereo not drawn) [PC-189] | 88.1 |

same assay, conditions: Supplementary Table 2, moderately active compounds (25 - 60% remaining), primary screen at 50 µM

| Compound | % left (remaining SFV replication) [%] |
| --- | --- |
| Cc1cc(=O)oc2c3c4c(cc12)CCCN4CCC3 [NC-015] | 34.6 |
| O=C1CN=C(c2ccccc2)c2cc([N+](=O)[O-])ccc2N1 [PC-130] | 46.6 |
| CNC1=Nc2ccc(Cl)cc2C(c2ccccc2)=[N+]([O-])C1 [PC-041] | 54.3 |

same assay, conditions: primary screening of chemical libraries; compounds tested at 50 µM

| Compound | SFV replication % left [%] |
| --- | --- |
| O=C1CC(=O)NC(=O)N1 [PC-021] | 48.8 |
| Nc1nc2ncc(CNc3ccc(C(=O)N[C@@H](CCC(=O)O)C(=O)O)cc3)nc2c(=O)[nH]1 [PC-085] | 100.0 |
| Cc1cc(=O)oc2c3c4c(cc12)CCCN4CCC3 [NC-015] | 34.6 |
| COc1cc(O)c2c(=O)c(OC)c(-c3ccc(OC)c(OC)c3)oc2c1 [NC-081] | 65.0 |
| O=c1c(O)c(-c2ccc(O)cc2)oc2cc(O)cc(O)c12 [NC-057] | 2.9 |
| Cc1cccc(C)c1NC(=O)C1CCCCN1C.Cl (stereo not drawn) [PC-112] | 74.9 |
| COc1ccc2c(C)cc(=O)oc2c1 [NC-120] | 72.2 |
| CNC(C)(C)Cc1ccccc1.CNC(C)(C)Cc1ccccc1.O=S(=O)(O)O [PC-111] | 81.8 |
| NS(=O)(=O)c1cc2c(cc1Cl)NCNS2(=O)=O [PC-091] | 121.2 |
| CCOC(=O)c1ccc(O)cc1 [PC-075] | 127.8 |
| COC(=O)c1cc(O)c(O)c(O)c1 [NC-064] | 67.8 |
| O=C1CN=C(c2ccccc2)c2cc([N+](=O)[O-])ccc2N1 [PC-130] | 46.0 |
| CC(C)(C)NCC(O)COc1cccc2c1CCC(=O)N2.Cl (stereo not drawn) [PC-038] | 67.2 |
| CCCCNc1ccc(C(=O)OCCN(C)C)cc1.Cl [PC-034] | 63.8 |
| O=C(O)c1cccc(O)c1O [NC-023] | 93.1 |
| C=CCOc1ccccc1OCC(O)CNC(C)C.Cl (stereo not drawn) [PC-142] | 92.4 |
| Br.COC(=O)C1=CCCN(C)C1 [PC-016] | 83.6 |
| Oc1cc(O)c2c(c1)O[C@H](c1cc(O)c(O)c(O)c1)[C@H](O)C2 [NC-036] | 101.9 |

| Compound | SFV replication % left [%] |
| --- | --- |
| Oc1cc(O)c2c(c1)O[C@H](c1ccc(O)c(O)c1)[C@H](O)[C@H]2c1c(O)cc(O)c2c1O[C@H](c1ccc(O)c(O)c1)[C@@H](O)C2 [NC-074] | 128.1 |
| O=c1ccc2ccc(O)c(O)c2o1 [NC-021] | 81.7 |
| COc1cc(C(=O)O)ccc1O [NC-105] | 53.4 |
| Cc1cc(=O)oc2cc(O)ccc12 [NC-108] | 90.9 |
| CN(C)CC/C=C1/c2ccccc2Sc2ccc(Cl)cc21.Cl [PC-047] | 90.3 |
| CCCOC(=O)c1cc(O)c(O)c(O)c1 [NC-076] | 33.6 |
| Cc1cc(=O)n(-c2ccccc2)n1C [PC-015] | 60.1 |
| CC(C)NCC(O)c1ccc(Cl)c(Cl)c1.Cl (stereo not drawn) [PC-062] | 49.6 |
| Oc1c(I)cc(Cl)c2cccnc12 [PC-049] | 71.9 |
| CN(C)c1cccc2c(S(=O)(=O)Cl)cccc12 [NC-032] | 4.6 |
| O=c1ccc2cc(O)c(O)cc2o1 [NC-126] | 103.6 |
| O=c1ccc2ccc(O)cc2o1 [NC-104] | 93.1 |
| CN1CCCCC1CCN1c2ccccc2Sc2ccc([S+](C)[O-])cc21.O=S(=O)(O)c1ccccc1 (stereo not drawn) [PC-113] | 93.8 |
| CNC1=Nc2ccc(Cl)cc2C(c2ccccc2)=[N+]([O-])C1 [PC-041] | 54.3 |
| Oc1cccc(O)c1O [NC-078] | 22.7 |
| Cc1ccccc1OCC(O)CO (stereo not drawn) [PC-110] | 79.2 |
| CC(=O)NS(=O)(=O)c1ccc(N)cc1 [PC-005] | 63.2 |
| OCc1ccccc1O[C@@H]1O[C@H](CO)[C@@H](O)[C@H](O)[C@H]1O [NC-091] | 104.4 |
